Laboratory results as given in patent US20110081315A1, “NOVEL MACROCYCLIC INHIBITORS OF HEPATITIS C VIRUS REPLICATION” (INTERMUNE, INC., priority 2009, published 2011).
pEC50, pIC50: −log10 of the molar value. Where two headings read alike, the source gives them in different places.

How the values were obtained:
hepatitis C replicon = hepatitis C replicon EC50 assay; assay type: cell-based; conditions: Hepatitis C virus
Method in brief: (§1)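 Enzyme IC50: NS3/NS4 complex, 23° C.; buffer Tris-HCl 50 mM pH 7.5 / glycerol 15% / DTT 10 mM / LDAO 0.6 mM / NS4A peptide 25 μM. Cellular: HCV replicon EC50.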

NS3/NS4 complexes = NS3/NS4 complexes (Hepatitis C virus genotype 1a, UniProt P27958); assay: NS3/NS4 inhibition assay (IC50); assay type: biochemical; conditions: NS3/NS4 activity; 23° C., 25 μM NS4A peptide
Method in brief: as §1

[1] = hepatitis C replicon, read-out: EC50

Chain of NS3/NS4 complexes (P27958 1027-1657, one chain of several): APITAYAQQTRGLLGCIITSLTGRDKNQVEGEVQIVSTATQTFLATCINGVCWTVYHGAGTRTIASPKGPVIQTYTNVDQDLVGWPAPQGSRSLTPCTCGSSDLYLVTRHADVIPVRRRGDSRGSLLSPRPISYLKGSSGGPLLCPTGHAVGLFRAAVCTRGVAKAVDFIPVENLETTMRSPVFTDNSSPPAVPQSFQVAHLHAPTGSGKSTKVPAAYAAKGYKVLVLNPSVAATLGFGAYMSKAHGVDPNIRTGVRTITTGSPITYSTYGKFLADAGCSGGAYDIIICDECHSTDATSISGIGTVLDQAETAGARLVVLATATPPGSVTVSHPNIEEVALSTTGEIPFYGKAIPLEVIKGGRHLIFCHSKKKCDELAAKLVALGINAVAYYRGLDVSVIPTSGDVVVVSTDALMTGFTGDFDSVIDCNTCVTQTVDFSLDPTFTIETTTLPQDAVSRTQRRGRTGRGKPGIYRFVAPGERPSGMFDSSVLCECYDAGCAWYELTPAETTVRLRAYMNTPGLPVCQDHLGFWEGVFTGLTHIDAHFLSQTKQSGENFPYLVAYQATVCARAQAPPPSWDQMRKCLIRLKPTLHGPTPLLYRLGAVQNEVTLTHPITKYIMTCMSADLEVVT

| Structure (SMILES) | pEC50 (hepatitis C replicon; [1]) | pIC50 (NS3/NS4 complexes) | pEC50 (hepatitis C replicon) |
| --- | --- | --- | --- |
| CC(C)c1nc(-c2cccc3c2nc(O[C@@H]2C[C@H]4C(=O)N[C@]5(C(=O)NS(=O)(=O)N(C)C)C[C@H]5/C=C\CCCCC[C@H](Nc5ccccc5)C(=O)N4C2)n3C(C)C)sc1C(C)C [Compound 1218] | < 7.00 | > 8.00 |  |
| Cc1sc(-c2c(F)ccc3c2nc(O[C@@H]2C[C@H]4C(=O)N[C@]5(C(=O)NS(=O)(=O)N(C)C)C[C@H]5/C=C\CCCCC[C@H](NC(=O)OC(C)(C)C)C(=O)N4C2)n3C(C)C)nc1C(C)C [Compound 1219] | > 8.00 | > 8.00 |  |
| Cc1oc(-c2c(F)ccc3c2nc(O[C@@H]2C[C@H]4C(=O)N[C@]5(C(=O)NS(=O)(=O)N(C)C)C[C@H]5/C=C\CCCCC[C@H](NC(=O)OC(C)(C)C)C(=O)N4C2)n3C(C)C)nc1C(C)C [Compound 1220] | > 8.00 | > 8.00 |  |
| CC(C)c1csc(NC(=O)c2cccc3c2nc(O[C@@H]2C[C@H]4C(=O)N[C@]5(C(=O)NS(=O)(=O)N(C)C)C[C@H]5/C=C\CCCCC[C@H](NC(=O)OC(C)(C)C)C(=O)N4C2)n3C(C)C)n1 [Compound 1221] | > 8.00 | > 8.00 |  |
| CC(C)n1c(O[C@@H]2C[C@H]3C(=O)N[C@]4(C(=O)NS(=O)(=O)N(C)C)C[C@H]4/C=C\CCCCC[C@H](NC(=O)OC(C)(C)C)C(=O)N3C2)nc2c(C(=O)NCc3nccs3)cccc21 [Compound 1222] | > 8.00 | > 8.00 |  |
| CCCn1c(O[C@@H]2C[C@H]3C(=O)N[C@]4(C(=O)NS(=O)(=O)N(C)C)C[C@H]4/C=C\CCCCC[C@H](NC(=O)OC(C)(C)C)C(=O)N3C2)nc2ccccc21 [Compound 1223] | > 8.00 | > 8.00 |  |
| CCC(C)n1c(O[C@@H]2C[C@H]3C(=O)N[C@]4(C(=O)NS(=O)(=O)N(C)C)C[C@H]4/C=C\CCCCC[C@H](NC(=O)OC(C)(C)C)C(=O)N3C2)nc2ccccc21 (stereo partly drawn) [Compound 1224] | > 8.00 | > 8.00 |  |
| Cc1nc2cc(O[C@@H]3C[C@H]4C(=O)N[C@]5(C(=O)NS(=O)(=O)C6(C)CC6)C[C@H]5/C=C\CCCCC[C@H](NC(=O)OC(C)(C)C)C(=O)N4C3)ccc2o1 [Compound 1251] | 7.00 to 8.00 | > 8.00 |  |
| Cc1nc2cc(O[C@@H]3C[C@H]4C(=O)N[C@]5(C(=O)NS(=O)(=O)C6(C)CC6)C[C@H]5/C=C\CCCCC[C@H](Nc5ccccc5)C(=O)N4C3)ccc2o1 [Compound 1252] | 7.00 to 8.00 | > 8.00 |  |
| Cc1nc2cc(O[C@@H]3C[C@H]4C(=O)N[C@]5(C(=O)NS(=O)(=O)N(C)C)C[C@H]5/C=C\CCCCC[C@H](NC(=O)OC(C)(C)C)C(=O)N4C3)ccc2s1 [Compound 1253] | < 7.00 | > 8.00 |  |
| CC(C)n1c(O[C@@H]2C[C@H]3C(=O)N[C@]4(C(=O)NS(=O)(=O)C5(C)CC5)C[C@H]4/C=C\CCCCC[C@H](NC(=O)OC(C)(C)C)C(=O)N3C2)nc2c(NS(=O)(=O)Cc3ccccc3)cccc21 [Compound 1401] | > 8.00 | > 8.00 |  |
| CC(C)n1c(O[C@@H]2C[C@H]3C(=O)N[C@]4(C(=O)NS(=O)(=O)C5(C)CC5)C[C@H]4/C=C\CCCCC[C@H](NC(=O)OC(C)(C)C)C(=O)N3C2)nc2c(-c3nc(C4CCCC4)cs3)cccc21 [Compound 1402] | > 8.00 | > 8.00 |  |
| CC(C)c1csc(-c2cccc3c2nc(O[C@@H]2C[C@H]4C(=O)N[C@]5(C(=O)NS(=O)(=O)C6(C)CC6)C[C@H]5/C=C\CCCCC[C@H](NC(=O)OC(C)(C)C)C(=O)N4C2)n3C(C)C)n1 [Compound 1403] | > 8.00 | > 8.00 |  |
| CC(C)c1ccn(-c2cccc3c2nc(O[C@@H]2C[C@H]4C(=O)N[C@]5(C(=O)NS(=O)(=O)C6(C)CC6)C[C@H]5/C=C\CCCCC[C@H](NC(=O)OC(C)(C)C)C(=O)N4C2)n3C(C)C)n1 [Compound 1404] | > 8.00 | > 8.00 |  |
| CCNC(=O)Nc1cccc2c1nc(O[C@@H]1C[C@H]3C(=O)N[C@]4(C(=O)NS(=O)(=O)C5(C)CC5)C[C@H]4/C=C\CCCCC[C@H](Nc4ccccc4)C(=O)N3C1)n2C(C)C [Compound 1405] | 7.00 to 8.00 | > 8.00 |  |
| CNC(=O)Nc1cccc2c1nc(O[C@@H]1C[C@H]3C(=O)N[C@]4(C(=O)NS(=O)(=O)C5(C)CC5)C[C@H]4/C=C\CCCCC[C@H](Nc4ccccc4)C(=O)N3C1)n2C(C)C [Compound 1406] | < 7.00 | > 8.00 |  |
| CC(C)NC(=O)Nc1cccc2c1nc(O[C@@H]1C[C@H]3C(=O)N[C@]4(C(=O)NS(=O)(=O)C5(C)CC5)C[C@H]4/C=C\CCCCC[C@H](Nc4ccccc4)C(=O)N3C1)n2C(C)C [Compound 1407] | 7.00 to 8.00 | > 8.00 |  |
| CC(C)n1c(O[C@@H]2C[C@H]3C(=O)N[C@]4(C(=O)NS(=O)(=O)C5(C)CC5)C[C@H]4/C=C\CCCCC[C@H](Nc4ccccc4)C(=O)N3C2)nc2c(N)cccc21 [Compound 1408] | 7.00 to 8.00 | > 8.00 |  |

| Structure (SMILES) | pEC50 (hepatitis C replicon; [1]) | pIC50 (NS3/NS4 complexes) | pEC50 (hepatitis C replicon) |
| --- | --- | --- | --- |
| CCOC(=O)Nc1cccc2c1nc(O[C@@H]1C[C@H]3C(=O)N[C@]4(C(=O)NS(=O)(=O)C5(C)CC5)C[C@H]4/C=C\CCCCC[C@H](Nc4ccccc4)C(=O)N3C1)n2C(C)C [Compound 1409] | > 8.00 | > 8.00 |  |
| CC(C)n1c(O[C@@H]2C[C@H]3C(=O)N[C@]4(C(=O)NS(=O)(=O)C5(C)CC5)C[C@H]4/C=C\CCCCC[C@H](Nc4ccccc4)C(=O)N3C2)nc2c(NC(N)=O)cccc21 [Compound 1410] | 7.00 to 8.00 | > 8.00 |  |
| CC(C)n1c(O[C@@H]2C[C@H]3C(=O)N[C@]4(C(=O)NS(=O)(=O)C5(C)CC5)C[C@H]4/C=C\CCCCC[C@H](NC(=O)OC4CCCC4)C(=O)N3C2)nc2c(-c3nc(C4CCCC4)cs3)cccc21 [Compound 1412] | > 8.00 | > 8.00 |  |
| CC(C)n1c(O[C@@H]2C[C@H]3C(=O)N[C@]4(C(=O)NS(=O)(=O)C5(C)CC5)C[C@H]4/C=C\CCCCC[C@H](NC(=O)OC4COC4)C(=O)N3C2)nc2c(-c3nc(C4CCCC4)cs3)cccc21 [Compound 1414] | > 8.00 | > 8.00 |  |
| CC(C)c1csc(-c2cccc3c2nc(O[C@@H]2C[C@H]4C(=O)N[C@]5(C(=O)NS(=O)(=O)C6(C)CC6)C[C@H]5/C=C\CCCCC[C@H](Nc5nccs5)C(=O)N4C2)n3C(C)C)n1 [Compound 1418] | > 8.00 | > 8.00 |  |
| CC(C)n1c(O[C@@H]2C[C@H]3C(=O)N[C@]4(C(=O)NS(=O)(=O)N(C)C)C[C@H]4/C=C\CCCCC[C@H](NC(=O)OC(C)(C)C)C(=O)N3C2)nc2c(N)cccc21 [Compound 1419] | > 8.00 | > 8.00 |  |
| CC(C)n1c(O[C@@H]2C[C@H]3C(=O)N[C@]4(C(=O)NS(=O)(=O)N(C)C)C[C@H]4/C=C\CCCCC[C@H](NC(=O)OC(C)(C)C)C(=O)N3C2)nc2c(NC(=O)Nc3ccccc3)cccc21 [Compound 1420] |  | > 8.00 | > 8.00 |
| CC(C)NC(=O)Nc1cccc2c1nc(O[C@@H]1C[C@H]3C(=O)N[C@]4(C(=O)NS(=O)(=O)N(C)C)C[C@H]4/C=C\CCCCC[C@H](NC(=O)OC(C)(C)C)C(=O)N3C1)n2C(C)C [Compound 1421] | > 8.00 | > 8.00 |  |
| CC(C)n1c(O[C@@H]2C[C@H]3C(=O)N[C@]4(C(=O)NS(=O)(=O)N(C)C)C[C@H]4/C=C\CCCCC[C@H](NC(=O)OC(C)(C)C)C(=O)N3C2)nc2c(NC(=O)NCc3ccccc3)cccc21 [Compound 1423] | > 8.00 | > 8.00 |  |
| CC(C)n1c(O[C@@H]2C[C@H]3C(=O)N[C@]4(C(=O)NS(=O)(=O)N(C)C)C[C@H]4/C=C\CCCCC[C@H](NC(=O)OC(C)(C)C)C(=O)N3C2)nc2c(NC(=O)NCCc3ccccc3)cccc21 [Compound 1424] |  | > 8.00 | > 8.00 |
| CC(C)n1c(O[C@@H]2C[C@H]3C(=O)N[C@]4(C(=O)NS(=O)(=O)N(C)C)C[C@H]4/C=C\CCCCC[C@H](NC(=O)OC(C)(C)C)C(=O)N3C2)nc2c(NC(N)=O)cccc21 [Compound 1425] | 7.00 to 8.00 | > 8.00 |  |
| CNC(=O)Nc1cccc2c1nc(O[C@@H]1C[C@H]3C(=O)N[C@]4(C(=O)NS(=O)(=O)N(C)C)C[C@H]4/C=C\CCCCC[C@H](NC(=O)OC(C)(C)C)C(=O)N3C1)n2C(C)C [Compound 1426] | 7.00 to 8.00 | > 8.00 |  |
| CCOC(=O)Nc1cccc2c1nc(O[C@@H]1C[C@H]3C(=O)N[C@]4(C(=O)NS(=O)(=O)N(C)C)C[C@H]4/C=C\CCCCC[C@H](NC(=O)OC(C)(C)C)C(=O)N3C1)n2C(C)C [Compound 1427] | > 8.00 | > 8.00 |  |
| CC(C)n1c(O[C@@H]2C[C@H]3C(=O)N[C@]4(C(=O)NS(=O)(=O)N(C)C)C[C@H]4/C=C\CCCCC[C@H](NC(=O)OC(C)(C)C)C(=O)N3C2)nc2c(NC(=O)OCc3ccccc3)cccc21 [Compound 1428] | > 8.00 | > 8.00 |  |
| CC(C)n1c(O[C@@H]2C[C@H]3C(=O)N[C@]4(C(=O)NS(=O)(=O)N(C)C)C[C@H]4/C=C\CCCCC[C@H](NC(=O)OC(C)(C)C)C(=O)N3C2)nc2c(NC(=O)OCCc3ccccc3)cccc21 [Compound 1429] | > 8.00 | > 8.00 |  |
| CCn1c(O[C@@H]2C[C@H]3C(=O)N[C@]4(C(=O)NS(=O)(=O)N(C)C)C[C@H]4/C=C\CCCCC[C@H](NC(=O)OC(C)(C)C)C(=O)N3C2)nc2c(-c3nc(C(C)C)cs3)cccc21 [Compound 1430] | 7.00 to 8.00 | > 8.00 |  |
| CCn1c(O[C@@H]2C[C@H]3C(=O)N[C@]4(C(=O)NS(=O)(=O)N(C)C)C[C@H]4/C=C\CCCCC[C@H](NC(=O)OC(C)(C)C)C(=O)N3C2)nc2c(-c3nc(-c4ccccc4)cs3)cccc21 [Compound 1431] | 7.00 to 8.00 | > 8.00 |  |
| CCn1c(O[C@@H]2C[C@H]3C(=O)N[C@]4(C(=O)NS(=O)(=O)N(C)C)C[C@H]4/C=C\CCCCC[C@H](NC(=O)OC(C)(C)C)C(=O)N3C2)nc2c(-c3nc(C(C)C)c(C)s3)cccc21 [Compound 1432] | 7.00 to 8.00 | > 8.00 |  |
